Data taken from ChEMBL document CHEMBL3877258, “Targeting cytochrome P450 (CYP) 1B1 with steroid derivatives” (Bioorg Med Chem Lett, 2016).

Columns and labels:
[1] = target: T1, CYP1B1 (Homo sapiens, UniProt Q16678); experiment: Inhibition of recombinant human CYP1B1 expressed in bacterial microsomes co-expressing P450 reductase at 3 uM using 7-ethyl-O-resorufin as substrate after 45 mins in presence of NADPH by fluorescence assay relative to control; conditions: probe 7-ethyl-O-resorufin
T1 sequence (Q16678 whole entry): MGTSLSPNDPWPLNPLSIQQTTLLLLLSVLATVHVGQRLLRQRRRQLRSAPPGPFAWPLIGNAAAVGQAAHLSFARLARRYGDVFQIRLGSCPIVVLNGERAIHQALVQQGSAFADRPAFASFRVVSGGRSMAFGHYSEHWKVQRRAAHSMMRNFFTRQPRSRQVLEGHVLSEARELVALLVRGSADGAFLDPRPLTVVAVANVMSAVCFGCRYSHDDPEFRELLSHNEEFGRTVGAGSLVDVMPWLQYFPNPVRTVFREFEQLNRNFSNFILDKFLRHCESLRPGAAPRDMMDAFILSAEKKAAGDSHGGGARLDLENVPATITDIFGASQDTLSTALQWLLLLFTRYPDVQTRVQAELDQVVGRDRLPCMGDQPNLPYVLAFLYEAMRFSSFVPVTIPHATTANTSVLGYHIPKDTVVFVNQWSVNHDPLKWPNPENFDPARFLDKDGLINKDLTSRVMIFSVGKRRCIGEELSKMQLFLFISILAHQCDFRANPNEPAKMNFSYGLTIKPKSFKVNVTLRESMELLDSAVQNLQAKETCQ

[2] = target: T2, Cytochrome P450 1B1 (Homo sapiens, UniProt Q16678); experiment: Inhibition of recombinant human CYP1B1 expressed in bacterial microsomes co-expressing P450 reductase using 7-ethyl-O-resorufin as substrate after 45 mins in presence of NADPH by fluorescence assay
T2 sequence (Q16678 whole entry): T1 sequence (Q16678 whole entry)

Compound	inhibition at 0.75 h, 3 µM [1] [%]	IC50 [2] [µM]
C[C@]12CC[C@@H]3c4ccc(O)c(F)c4CC[C@H]3[C@@H]1CC[C@@H]2O	7.5	
C[C@]12CC[C@@H]3c4cc(Br)c(O)c(Br)c4CC[C@H]3[C@@H]1CC[C@@H]2O	1	
C[C@]12CC[C@@H]3c4cc([N+](=O)[O-])c(O)c([N+](=O)[O-])c4CC[C@H]3[C@@H]1CC[C@@H]2O	11.4	
O=c1cc(-c2ccccc2)oc2c1ccc1ccccc12 [ALPHA-NAPHTHOFLAVONE]	89.2	
C[C@]12CC[C@@H]3c4ccc(NC(=O)O)cc4CC[C@H]3[C@@H]1CCC2=O	8.9	
CCCCCCCN(C=O)[C@H]1CC[C@H]2[C@@H]3CCc4cc(O)ccc4[C@H]3CC[C@]12C	0	
COc1cc2c(cc1OS(N)(=O)=O)CC[C@@H]1[C@@H]2CC[C@@]2(C)[C@H]1CC[C@@]2(O)Cc1ccccc1	7.7	
C[C@]12CC[C@@H]3c4ccc(OS(N)(=O)=O)cc4CC[C@H]3[C@@H]1C[C@H](CCCNC(=O)C1CCCN1C(=O)Cc1ccccc1)[C@@H]2O (stereo not given in full)	21.4	
Cc1cc2c(cc1O)CC[C@@H]1[C@@H]2CC[C@]2(C)[C@@H](O)CC[C@@H]12	1	
C#C[C@]1(O)CC[C@H]2[C@@H]3CCc4c(ccc(O)c4Br)[C@H]3CC[C@@]21C	7.5	
C[C@]12CC[C@@H]3c4ccc(O)cc4CC[C@H]3[C@@H]1C[C@H](CCCNC(=O)C(Cc1ccccc1)NC(=O)Cc1ccccc1)[C@@H]2O (stereo not given in full)	7.7	
COc1cc2c(cc1OS(N)(=O)=O)CC[C@@H]1[C@@H]2CC[C@]2(C)[C@@H](O)CC[C@@H]12	23.8	
C[C@]12CC[C@@H]3c4ccc(OS(N)(=O)=O)cc4CC[C@H]3[C@@H]1C[C@H](CCCNC(=O)C(Cc1ccccc1)NC(=O)Cc1ccccc1)[C@@H]2O (stereo not given in full)	22.8	
C[C@]12CC[C@@H]3c4ccc(O)c(Br)c4CC[C@H]3[C@@H]1CC[C@@H]2O	29	
COc1cc2c(cc1O)CC[C@@H]1[C@@H]2CC[C@]2(C)C(=O)CC[C@@H]12	13.2	
C[C@]12CC[C@@H]3c4cc(Br)c(O)cc4CC[C@H]3[C@@H]1CC[C@@H]2O	22.6	
C[C@]12CC[C@@H]3c4ccccc4C(O)C[C@H]3[C@@H]1CC[C@@H]2O (stereo not given in full)	20	
C[C@]12CC[C@@H]3c4ccc(OC(N)=O)cc4CC[C@H]3[C@@H]1CCC2=O	9.9	
CNS(=O)(=O)Oc1cc2c(cc1OS(=O)(=O)NC)[C@H]1CC[C@]3(C)C(=O)CC[C@H]3[C@@H]1CC2	30.3	
C[C@]12CC[C@@H]3c4ccc(OS(N)(=O)=O)cc4CC[C@H]3[C@@H]1CCC2=O [EMATE]	8.6	
CCc1ccc2c(c1)CC[C@@H]1[C@@H]2CC[C@]2(C)C(=O)CC[C@@H]12	42.8	
COc1cc2c(cc1O)CC[C@@H]1[C@@H]2CC[C@]2(C)[C@@H](O)CC[C@@H]12 [2-METHOXYESTRADIOL]	4.4	

Compound	inhibition at 0.75 h, 3 µM [1] [%]	IC50 [2] [µM]
C[C@]12CC[C@@H]3c4ccc(OS(N)(=O)=O)cc4CC[C@H]3[C@@H]1CC[C@@]2(O)CN1CCN(C(=O)[C@H](Cc2ccccc2)NC(=O)CCC2CCCC2)CC1	14.9	
Cc1ccc(S(=O)(=O)/N=S(\C)c2ccc3c(c2)CC[C@@H]2[C@@H]3CC[C@]3(C)C(=O)CC[C@@H]23)cc1 (stereo not given in full)	0.1	
C[C@]12CC[C@@H]3c4ccc([N+](C)(C)[O-])cc4CC[C@H]3[C@@H]1CCC2=O	36.6	
C[C@]12CC[C@@H]3c4ccc(O)cc4CC[C@H]3[C@@H]1C[C@@H](CCCBr)[C@@H]2O	2	
C[C@]12CC[C@@H]3c4cc(F)c(O)cc4CC[C@H]3[C@@H]1CC[C@@H]2O	28.7	
COc1ccc2c(c1)CC[C@@H]1[C@@H]2CC[C@]2(C)C(=O)CC[C@@H]12	2	
C[C@]12CC[C@@H]3c4ccc(O)cc4C(=O)C[C@H]3[C@@H]1CC[C@@H]2O	9.7	
C[C@]12CC[C@@H]3c4ccc(OCCBr)cc4CC[C@H]3[C@@H]1CC[C@@H]2O	11.1	
COc1cc2c(cc1O)CC[C@@H]1[C@@H]2CC[C@@]2(C)[C@H]1CC[C@@]2(O)Cc1ccccc1	0	
C[C@]12CC[C@@H]3c4ccc(N)cc4CC[C@H]3[C@@H]1CCC2=O	16.2	
C[C@]12CC[C@@H]3c4ccc(O)cc4CC[C@H]3[C@@H]1CC[C@@]21CCC(=O)O1	13.9	
CCCCCCCN[C@H]1CC[C@H]2[C@@H]3CCc4ccc(OC)cc4[C@H]3CC[C@]12C	9.4	
C[C@]12CC[C@@H]3c4ccc(OS(=O)(=O)O)cc4CC[C@H]3[C@@H]1CC[C@@H]2O	0.9	
C[C@]12CC[C@@H]3c4ccccc4C(=O)C[C@H]3[C@@H]1CCC2=O	16	
C[C@]12CC[C@@H]3c4ccc(C(=O)O)cc4CC[C@H]3[C@@H]1CCC2=O	11.5	
C[C@]12CC[C@@H]3c4ccc(C5CO5)cc4CC[C@H]3[C@@H]1CCC2=O (stereo not given in full)	12.4	
C#C[C@]1(O)CC[C@H]2[C@@H]3CCc4cc(O)c(Br)cc4[C@H]3CC[C@@]21C	8.4	
CC(=O)c1ccc(C(=O)N2CCCC2C(=O)NCCCCCCCCCCC[C@@H]2Cc3cc(O)ccc3[C@H]3CC[C@]4(C)[C@@H](O)CC[C@H]4[C@H]23)cc1 (stereo not given in full)	22.1	
C[C@]12CC[C@@H]3c4ccc(S)cc4CC[C@H]3[C@@H]1CCC2=O	61.1 to 61.6	3.4
CCCCCCCN(C=O)[C@H]1CC[C@H]2[C@@H]3CCc4cc(OC)ccc4[C@H]3CC[C@]12C	3.5	
C[C@]12CC[C@@H]3c4ccccc4CC[C@H]3[C@@H]1CCC2=O	11.3	
CCS(=O)(=O)Oc1ccc2c(c1)CC[C@@H]1[C@@H]2CC[C@]2(C)C(=O)CC[C@@H]12	0.3	
